Results published in patent publication US12440466B2, “Fatty acid derivatives for treating non-alcoholic steatohepatitis” (BASF AS, priority 2017, dated 2025).
Marks after values point to notes of the source that are not given here.

What was measured:
TNF-α mRNA = assay: Hepatic TNF-α mRNA expression by qPCR, CDAA/high-fat diet mouse model; type: in vivo; conditions: CDAA/high-fat fed mice
Excerpt: (§1) Mice were fed either choline-sufficient (CS) or choline deficient high-fat diets (31% total calories; “CDAA/high-fat”). The NASH inducing diet was instigated 6 weeks prior to the commencement of treatment in order to design the study as a treatment/reversal set-up rather than prophylaxis.
After 6 weeks of either the CS- or CDAA diet, mice were orally administered Compound A or comparison Compound N, both at 2 doses, 0.15 mmol/kg bw/day (low-dose, LD) and 0.3 mmol/kg bw per day (high-dose, HD). The test substances were administered orally as admix to the high-fat diet. Hepatic fibrosis was assessed by both measurement of hydroxyproline (HYP) content and Sirius Red (SR) morphometry. Fibrosis, inflammation and metabolism related transcripts levels were measured by quantitative real-time polymerase chain reaction (qPCR).
(§2) Studies were performed in male C56BL/6J mice (9 weeks old). Mice were divided into 6 experimental groups (n=9 per group) containing either CS or CDAA/high-fat diets, as described above. The NASH inducing CDAA/high fat diet was instigated 6 weeks prior to the commencement of treatment in order to assess treatment/reversal rather than prophylaxis. […] Compound A was administered orally as admix to the high-fat diet whilst GLP-1 agonist was delivered via intraperitoneal injection (i.p.). Fibrosis, inflammation and metabolism related transcripts levels were measured by quantitative real-time polymerase chain reaction (qPCR) in isolated liver tissue.

[1] = Body weight, liver weight and food intake in ob/ob AMLN mice; type: in vivo, mouse
Method: (§3) Obese diet-induced B6.V-Lepob/Jrj mice (ob/ob) are consistently fibrosis (liver) prone when cholesterol (2%), 40% fat (containing 18% trans-fatty acids) and 20% fructose are added to a high-caloric diet (i.e., AMLN high-fat diet). ob/ob mice on AMLN diet (termed ‘ob/ob AMLN mice’) develop steatohepatitis and fibrosis within a shorter timeframe ([…]) compared with wild-type C57BL/6 mice (AMLN mice) fed the same diet. ob/ob AMLN mice provide an obese diet-induced model of NASH that also allows the study of effects on glycemic control. Development of NASH in the ob/ob AMLN model is confirmed by biopsy.
(§4) In Biological Examples 10-12, 15, and 19, studies were performed in male ob/ob mice (5 weeks old) fed an AMLN high-fat diet for 15 weeks, then randomized into 3 groups (n=10 per group) to receive either 112 mg/kg bw per day of Compound A via diet, 30 mg/kg bw per day pioglitazone via diet or no treatment (vehicle) for a further 4 weeks. An oral glucose tolerance test (OGTT) was performed at week 3. Hepatic fibrosis was assessed via measurements of hepatic fibrogenic/fibrolytic gene expression by RNA sequencing at 4 weeks.
In Biological Examples 10, 13-14, and 16-18, studies were performed in male ob/ob mice (5 weeks old) fed an AMLN high-fat diet for 18 weeks, then randomized into 6 groups (n=10 per group) to receive either Compound A (at 3 different daily doses, 45 mg/kg, 90 mg/kg or 135 mg/kg) via diet, 30 mg/kg bw per day obeticholic acid (OCA) via diet, or no treatment (vehicle) for a further 8 weeks. Assessment of NASH related parameters and fibrosis was made at study end by quantitative immune histochemistry (IHC) measurements.

TIMP-1a mRNA = assay: Hepatic TIMP-1a mRNA expression by qPCR, CDAA/high-fat diet mouse model; type: in vivo; conditions: CDAA/high-fat fed mice; Compound A 0.3 mmol/kg bw/day oral; GLP-1a 0.4 mg/kg once weekly i.p.; alone or combined
Method: as §1, §2

APOE*3Leiden.CETP mice = assay: Hepatic free cholesterol, cholesterol ester and triglyceride content (HPTLC) in APOE*3Leiden.CETP mice; type: in vivo, mouse; conditions: ApoE*3L-CETP mice, Western diet 0.25% cholesterol, 4 weeks; Compound A LD 0.3 mmol/kg bw/day; EPA/DHA ethyl esters HD 3 mmol/kg bw/day
Excerpt: The APOE*3Leiden.CETP double transgenic mouse expresses a variant of the human apolipoprotein E3 (APOE3), the APOE*3Leiden, in addition to the human apolipoprotein C1 (APOC1) and CETP. […] By increasing the cholesterol content of the diet in this model, all the characteristics of human NASH develop.
In Biological Example 25, the effects of Compound A alone and in combination with omega-3 fatty acid were studied. APOE*3Leiden.CETP mice were placed on a semi-synthetic high fat diet (24% fat w/w) with […] w/w. After a 4-week run-in period, low-responder mice were removed from the study and the remaining mice were sub-divided into groups of 8 mice each, matched for plasma cholesterol, triglycerides, blood glucose, body weight and age (t=0) and treatment was started. To facilitate mixing of the compounds, sunflower oil was added to a total oil volume of 10 mL/kg diet. Compound A was administered at 0.3 mmol/kg bw/day whilst the omega-3 fatty acid ethyl-esters (85% w/w EPA/DHA ethyl-esters) were administered at 3.0 mmol/kg bw/day. Both Compound A and the omega-3 ethyl esters were administered orally as admix to the high-fat diet. After 4 weeks of treatment, mice were sacrificed by C02 asphyxiation, the liver was collected and the hepatic content of free cholesterol, cholesterol ester and triglyceride were measured after extraction and separation by high performance thin layer chromatography.

[2] = test system: LX-2 human hepatic stellate cells; assay: LX-2 cell viability by MTS assay; type: cell-based; conditions: LX-2 cells; 24 hours; Compound A 10-75 μM, OA 75 μM
Method: Stellate cells are resident liver cells and the major cell type involved in the initiation and progression of liver fibrosis. In Biological Example 20, in vitro studies were performed on cultured human stellate cells (LX-2 cells) to assess direct effects of Compound A on these cells. Cells were treated for 24 hours with Compound A (10 μM, 25 μM, 50 μM, or 75 μM) or oleic acid (OA; 75 μM) and bromodeoxyuridine (BrdU) incorporation was assessed to determine effects on proliferation. A MTS (3-(4,5-dimethylthiazol-2-yl)-5-(3-carboxymethoxyphenyl)-2-(4-sulfophenyl)-2H-tetrazolium) assay was used to determine cell viability.
Cell proliferation of LX-2 human hepatic stellate cells treated for 24 hours with 10-75 μM of Compound A or oleic acid (OA) (75 μM) was assessed by BrdU incorporation. The results are normalised mean values ±S.E.M. of 5 independent experiments for icosabutate and 2 independent experiments for OA. […] The reduction in proliferation by Compound A was 25-34% at 24 hours whereas OA had no effect. The comparisons were made by one-way ANOVA with Dunnett's correction for multiple comparisons.

ob/ob AMLN mice = assay: Oral glucose tolerance test (OGTT) and glycemic control in ob/ob AMLN mice; type: in vivo, mouse; conditions: after 3 weeks, Compound A 112 mg/kg, pioglitazone 30 mg/kg
Method: as §3, §4
After 3 weeks of administration of Compound A (112 mg/kg), pioglitazone, or vehicle control, an oral glucose tolerance test (OGTT) was performed in ob/ob AMLN mice.

[3] = 8 weeks, Compound A 45, 90 and 135 mg/kg, OCA 30 mg/kg bw per day

CC/C=C\C/C=C\C/C=C\C/C=C\C/C=C\CCCCOC(CC)C(=O)O (stereo not shown) [Compound A, 2-((5Z,8Z,11Z,14Z,17Z)-icosa-5,8,11,14,17-pentaenyloxy)butanoic acid]
TNF-α (relative mRNA expression) (TNF-α mRNA; Compound A 0.3 mmol/kg bw/day oral, GLP-1a 0.4 mg/kg once weekly i.p., alone or combined): 0.65***
TNF-a (relative mRNA expression) (TNF-α mRNA; HD 0.3 mmol/kg bw per day): 0.65***
TNF-a (relative mRNA expression) (TNF-α mRNA; LD 0.15 mmol/kg bw/day): 0.75***
body weight ([1]; 4 weeks, Compound A 112 mg/kg): no effect
body weight [1, 3]: neither Compound A (45 mg/kg, 90 mg/kg, and 135 mg/kg) nor OCA significantly affected body weight
food intake [1, 3]: not affected
TIMP-1a (relative mRNA expression) (TIMP-1a mRNA): 2***
Hepatic CE (APOE*3Leiden.CETP mice): 17*
Hepatic FC (APOE*3Leiden.CETP mice): 9.5
Hepatic TG (APOE*3Leiden.CETP mice): 58.8
cell viability (MTS assay) [2]: neither Compound A nor OA showed a significant effect
fasting plasma glucose levels (ob/ob AMLN mice): significant reductions
glucose excursion after glucose load (AUC 0-240 mins), OGTT (ob/ob AMLN mice): significantly reduced
